Reference: US20230105212A1, “BIPHENYL DERIVATIVE INHIBITOR, PREPARATION METHOD THEREFOR AND USE THEREOF” (SHANGHAI HANSOH BIOMEDICAL CO., LTD., priority 2020, published 2023)

Experiments:
[1] = Plasma protein binding rate (equilibrium dialysis); type: in vitro ADME; conditions: mouse plasma, equilibrium dialysis 37° C. 5 hours
Method: Test Embodiment 8. Plasma Protein Binding Rate Experiment
The purpose of this experimental method was to detect the plasma protein binding of the embodiment compounds in plasma.
The frozen plasma was thawed at room temperature or in a water bath at 37° C., then centrifuged at 3500 rpm for 5 min, and the supernatant was taken.
Preparation of compound working solution: Stock solutions were diluted with DMSO to a final concentration of 1 mM.
2.5 μL of compound working solution was added to 497.5 μL of blank plasma to a final concentration of 5 μM, shaked and mixed well.
1) The equilibrium dialysis device was prepared, and the detection membrane device was put into the equilibrium dialysis 96-well plate;
2) 200 μL of the prepared plasma solution was added to the membrane, n=2;
3) another 5 μL of plasma solution was taken, diluted 10 times with 45 μL of blank plasma of the same species, and 200 μL of acetonitrile termination solution containing internal standard was added, and stored in a −20° C. refrigerator;
4) 350 μL of dialysate (100 mM phosphate buffer) was added outside the membrane;
5) the dialysis plate was sealed and incubated in a 37° C. water bath for 5 hours;
6) after dialysis, 5 μL was taken out from the sample hole in the membrane, and diluted 10 times with 45 μL of blank plasma of the same species; 50 μL of dialysate was taken out from the sample hole outside the membrane, and 200 μL of acetonitrile termination solution containing internal standard was added;
7) the supernatant was taken after sample centrifugation;

[2] = Pharmacokinetic test of plasma and tumor of tumor-bearing nude mice; type: in vivo; conditions: tumor-bearing nude mice, p.o. 30 mg/kg; for Kp: female, mouse, tumor/plasma, po, read-out: Tumor plasma ratio
Method: Test Embodiment 7. Pharmacokinetic Test of Plasma and Tumor of Tumor-Bearing Nude Mice
Taking tumor-bearing nude mice as the test animals, the pharmacokinetic behavior in the plasma and tumor of tumor-bearing nude mice of the following compound embodiments was studied when orally administered at a dose of 30 mg/kg.
Tumor-bearing nude mouse 21/embodiment, female, Shanghai B&K Laboratory Animal Co., Ltd., animal production license number (SCXK (Shanghai) 2013-0006 No. 311620400001794).
0.5% HPMC (1% Tween 80), dissolved by sonication, to prepare a clear solution or a homogeneous suspension.
Tumor-bearing nude mice, female; p.o. after overnight fasting, respectively, at a dose of 30 mg/kg, administered in a volume of 10 mL/kg.
Before and after administration of tumor-bearing nude mice, at 0, 1, 2, 4, 6, 8, 16 and 24 hours, 0.1 mL of blood was collected from the orbit, placed in an EDTA-K2 test tube, and centrifuged at 6000 rpm at 4° C. for 6 min to separate the plasma. After dissection, the tumor tissue was weighed and stored at −80° C.
1) Tumor tissue was homogenized with methanol and water at a ratio of 1:3, and then centrifuged to get the supernatant. 40 μL of tumor homogenate supernatant and 40 μL of plasma sample were added to 160 μL of acetonitrile for precipitation, and after mixing, centrifuged at 3500×g for 5 to 20 minutes.
2) 100 μL of the supernatant solution after treatment was taken for LC/MS/MS to analyze the concentration of the compounds to be tested.
2.7 Liquid Phase Analysis • Liquid phase condition: Shimadzu LC-20AD pump • MS conditions: AB Sciex API 4000 Mass Spectrometer • Chromatographic column: phenomenex Gemiu 5 μm C18 50×4.6 mm • Mobile phase: A solution was aqueous 0.1% formic acid solution, B solution was acetonitrile • Flow rate: 0.8 mL/min • Elution time: 0 to 4.0 minutes, the eluent was as follows:
The main parameters of pharmacokinetics were calculated with WinNonlin 8.2, and the results of the tumor-bearing nude mice pharmacokinetic experiments were shown in the following table: […]

[3] = test system: MC38-hPDL1 cells; assay: In vitro cytotoxicity on MC38-hPDL1 cells (CellTiter-Glo); type: cell-based, mouse; conditions: for MC38-hPDL1 inhibition rate (%): 72 hours; for IC50: Mus musculus, MC38-hPD-L1, 72 hours
Method in brief: (§1)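 Cells plated overnight at 37° C, 5% CO2, then exposed to serial compound dilutions for 72 hours. Viability measured by CellTiter-Glo luminescence; inhibition rate versus vehicle fitted by nonlinear regression to give IC50.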

[4] = test system: NFAT-luc2/PD1 Jurkat cells; assay: In vitro cytotoxicity on NFAT-luc2/PD1 Jurkat cells (CellTiter-Glo); type: cell-based; conditions: 72 hours; for IC50: Homo sapiens, Jurkat
Method in brief: as §1

SMILES | fraction unbound at 5 h, 5 μM [1] | Kp [2] | Drug concentration in plasma [2] [ng/mL] | Drug concentration in tumor [2] [ng/mL] | MC38-hPDL1 inhibition rate (%) [3] [%] | IC50 [3] [µM] | Jurkat-PD1 inhibition rate (%) [4] [%] | IC50 [4] [µM]
COc1nc(-c2cccc(-c3cccc(NC(=O)c4nc5c(n4C)CCN(C)C5)c3Cl)c2Cl)ccc1CN[C@H]1CCOC[C@@H]1O (relative stereo) [Embodiment 175, N-(2,2′-Dichloro-3′-(5-((((3,4-trans)-3-hydroxytetrahydro-2H-pyran-4-yl)amino)methyl)-6-methoxypyridin-2-yl)-[1,1′-biphenyl]-3-yl)-1,5-dimethyl-4,5,6,7-tetrahydro-1H-imidazo[4,5-c]pyridine-2-carboxamide] | 0.0052 | 2.1 | 485 | 1009 | – | – | – | –
COc1nc(-c2cccc(-c3cccc(NC(=O)c4nc5c(n4C)CCN(C)C5)c3Cl)c2Cl)ccc1CN1CC2(COC2)C1 [Embodiment 124, N-(3′-(5-((2-Oxa-6-azaspiro[3.3]heptan-6-yl)methyl)-6-methoxypyridin-2-yl)-2,2′-dichloro-[1,1′-biphenyl]-3-yl)-1,5-dimethyl-4,5,6,7-tetrahydro-1H-imidazo[4,5-c]pyridine-2-carboxamide] | 0.0057 | – | – | – | – | – | – | –
COc1nc(-c2cccc(-c3cccc(NC(=O)c4nc5c(n4C)CCN(C)C5)c3Cl)c2Cl)cnc1CN1CC2(C1)CN(C(C)=O)C2 [Embodiment 152, N-(3′-(5-((6-Acetyl-2,6-diazaspiro[3.3]heptan-2-yl)methyl)-6-methoxypyrazin-2-yl)-2,2′-dichloro-[1,1′-biphenyl]-3-yl)-1,5-dimethyl-4,5,6,7-tetrahydro-1H-imidazo[4,5-c]pyridine-2-carboxamide] | 0.0181 | 4.6 | 153 | 707 | 15 | > 10 | 97 | 4.46
COc1nc(-c2cccc(-c3cccc(NC(=O)c4nc5c(n4C)CCN(C)C5)c3Cl)c2Cl)ccc1CN1CC(O)(CO)C1 [Embodiment 173, N-(2,2′-Dichloro-3′-(5-((3-hydroxy-3-(hydroxymethyl)azetidin-1-yl)methyl)-6-methoxypyridin-2-yl)-[1,1-biphenyl]-3-yl)-1,5-dimethyl-4,5,6,7-tetrahydro-1H-imidazo[4,5-c]pyridine-2-carboxamide] | – | 2.2 | 291 | 628 | – | – | – | –
COc1nc(-c2cccc(-c3cccc(NC(=O)c4nc5c(n4C)CCN(C)C5)c3Cl)c2Cl)ccc1CNC(CO)CO [Embodiment 174, N-(2,2′-Dichloro-3′-(5-(((1,3-dihydroxypropan-2-yl)amino)methyl)-6-methoxypyridin-2-yl)-[1,1′-biphenyl]-3-yl)-1,5-dimethyl-4,5,6,7-tetrahydro-1H-imidazo[4,5-c]pyridine-2-carboxamide] | – | 2.4 | 291 | 697 | – | – | – | –
COc1nc(-c2cccc(-c3cccc(NC(=O)c4nc5c(n4C)CCN(C)C5)c3Cl)c2Cl)ccc1CN1CC(NC(C)=O)C1 [Embodiment 180, N-(3′-(5-((3-Acetylaminoazetidin-1-yl)methyl)-6-methoxypyridin-2-yl)-2,2′-dichloro-[1,1′-biphenyl]-3-yl)-1,5-dimethyl-4,5,6,7-tetrahydro-1H-imidazo[4,5-c]pyridine-2-carboxamide] | 0.0044 | – | – | – | – | – | – | –
COc1nc(-c2cccc(-c3cccc(NC(=O)c4nc5c(n4C)CCN(C)C5)c3Cl)c2Cl)ccc1CN1CC(C(=O)N(C)C)C1 [Embodiment 183, N-(2,2′-Dichloro-3′-(5-((3-(dimethylcarbamoyl)azetidin-1-yl)methyl)-6-methoxypyridin-2-yl)-[1,1′-biphenyl]-3-yl)-1,5-dimethyl-4,5,6,7-tetrahydro-1H-imidazo[4,5-c]pyridine-2-carboxamide] | – | 2.3 | 309 | 697 | 14 | > 10 | 71 | 5.82
COc1nc(-c2cccc(-c3cccc(NC(=O)c4nc5c(n4C)CCN(C)C5)c3Cl)c2Cl)ccc1CN1CC2(C1)CN(C(=O)C(C)C)C2 [Embodiment 186, N-(2,2′-Dichloro-3′-(5-((6-isobutyryl-2,6-diazaspiro[3.3]heptan-2-yl)methyl)-6-methoxypyridin-2-yl)-[1,1′-biphenyl]-3-yl)-1,5-dimethyl-4,5,6,7-tetrahydro-1H-imidazo[4,5-c]pyridine-2-carboxamide] | 0.003 | – | – | – | – | – | – | –
CCC(=O)N1CC2(CN(Cc3ccc(-c4cccc(-c5cccc(NC(=O)c6nc7c(n6C)CCN(C)C7)c5Cl)c4Cl)nc3OC)C2)C1 [Embodiment 188, N-(2,2′-Dichloro-3′-(6-methoxy-5-((6-propionyl-2,6-diazaspiro[3.3]heptan-2-yl)methyl)pyridin-2-yl)-[1,1′-biphenyl]-3-yl)-1,5-dimethyl-4,5,6,7-tetrahydro-1H-imidazo[4,5-c]pyridine-2-carboxamide] | 0.0052 | – | – | – | – | – | – | –
COc1nc(-c2cccc(-c3cccc(NC(=O)c4nc5c(n4C)CCN(C)C5)c3Cl)c2Cl)cnc1CN1CC(NC(C)=O)C1 [Embodiment 218, N-(3′-(5-((3-Acetylaminoazetidin-1-yl)methyl)-6-methoxypyrazin-2-yl)-2,2′-dichloro-[1,1′-biphenyl]-3-yl)-1,5-dimethyl-4,5,6,7-tetrahydro-1H-imidazo[4,5-c]pyridine-2-carboxamide] | – | – | – | – | 51 | 9.35 | 85 | 4.32
COc1nc(-c2cccc(-c3cccc(NC(=O)c4nc5c(n4C)CCN(C)C5)c3Cl)c2Cl)ncc1CN1CC(CO)C1 [Embodiment 223, N-(2,2′-Dichloro-3′-(5-((3-(hydroxymethyl)azetidin-1-yl)methyl)-4-methoxypyrimidin-2-yl)-[1,1′-biphenyl]-3-yl)-1,5-dimethyl-4,5,6,7-tetrahydro-1H-imidazo[4,5-c]pyridine-2-carboxamide] | – | 3.5 | 432 | 1504 | 2 | > 10 | 77 | 4.77
COc1nc(-c2cccc(-c3cccc(NC(=O)c4nc5c(n4C)CCN(C)C5)c3Cl)c2Cl)ncc1CN1CC(CNC(C)=O)C1 [Embodiment 225, N-(3′-(5-((3-(Acetylaminomethyl)azetidin-1-yl)methyl)-4-methoxypyrimidin-2-yl)-2,2′-dichloro-[1,1′-biphenyl]-3-yl)-1,5-dimethyl-4,5,6,7-tetrahydro-1H-imidazo[4,5-c]pyridine-2-carboxamide] | – | – | – | – | 1 | > 10 | 51 | 9.07
